The record followed here is the supplement of paper PMC11208160.
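Further: IS621 recombinase and bridge RNA in Escherichia coli cells.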

This data set can be described thus: recombinant barcode read abundance after kanamycin selection (control-corrected) (log10(CPM+1)); higher = more efficient recombination; sequences stand for … in AGTGCAGAGAAAATCGGCCAGTTTTCTCTGCCTGCAGTCCGCATGCCGT…AGATTTATGCAGCGGACTGCCTTTCTCCCAAAGTGATAAACCGGACAGTATCATGGACCGGTTTTCCCGGTAATCCGTATTTGCAAGGTTGGTTTCACT; site = the 11-nt target. Put shortly: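 In a pooled screen in E. coli, targets were paired with target-binding loops of the IS621 bridge RNA. Each oligo carried a promoter, a target, a barcode and the first 104 bridge RNA bases driven by J23119, and was Gibson-cloned into a vector holding the remaining 73 bp and a T7-inducible recombinase before co-electroporation with a donor plasmid. Duplicate platings went onto chloramphenicol/ampicillin LB agar as the control or onto chloramphenicol/ampicillin/kanamycin with 0.1 mM IPTG. Recombination efficiency is the averaged, control-corrected count per million of barcodes at recombinant junctions, given as log10(CPM+1).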
Take “CCTAATCCTTGGGTTCTAACCTGTTGCGT (site CCTAAGCCTAC)”: the “recombinant barcode read abundance (log10)” value came to 0.22.
Next, “CCTAATCCTTGGGTTCTAACCTGTTGCGT (site CCTAATCCTAC)”: 1.1; “CCTACAACTTGGGTTCTAACCTGTTGCCT (site CCTACAACTAG)”: 0.313.
With “CCTACAACTTGGGTTCTAACCTGTTGCCT (site CCTACACCTAG)”, the “recombinant barcode read abundance (log10)” value turned out to be 0.0313.
The result for “CCTACAACTTGGGTTCTAACCTGTTGCCT (site CCTACAGCTAG)” reads 0.138.
Next, “CCTACAACTTGGGTTCTAACCTGTTGCCT (site CCTACATCTAG)”: 0.227.
Next, “CCTACAGCTTGGGTTCTAACCTGTTGCCT (site CCTACAACTAG)”: 0.363; “CCTACAGCTTGGGTTCTAACCTGTTGCCT (site CCTACACCTAG)”: 0.37.
In the case of “CCTACAGCTTGGGTTCTAACCTGTTGCCT (site CCTACAGCTAG)”, the “recombinant barcode read abundance (log10)” value came to 0.532.
On to “CCTACAGCTTGGGTTCTAACCTGTTGCCT (site CCTACATCTAG)”, for which the “recombinant barcode read abundance (log10)” value was 0.0747.
Regarding “CCTACATCTTGGGTTCTAACCTGTTGCTA (site CCTACATCTAT)”, the “recombinant barcode read abundance (log10)” value was 0.177.
For “CCTACATCTTGGGTTCTAACCTGTTGCTA (site CCTACATCTTA)”, the “recombinant barcode read abundance (log10)” value was determined as 0.0332.
Next, “CCTACGCCTTGGGTTCTAACCTGTTGCCA (site CCTACGCCTTG)”: 0.842; “CCTACGCCTTGGGTTCTAACCTGTTGCCA (site TTCCGAGCTCT)”: 0; “CCTACTACTTGGGTTCTAACCTGTTGCCG (site CCTACTACTCG)”: 0.0812.
The result for “CCTACTACTTGGGTTCTAACCTGTTGCCG (site CCTACTCCTCT)” reads 0.0358; that for “CCTACTCCTTGGGTTCTAACCTGTTGCCT (site CCTACTCCTAG)”, 0.281.
Next, “CCTACTCCTTGGGTTCTAACCTGTTGCCT (site CCTGCTCCTAA)”: 0.0634.
In the case of “CCTAGAGCTTGGGTTCTAACCTGTTGCCT (site CCTAGAACTAG)”, the “recombinant barcode read abundance (log10)” value was 0.097.
Next, “CCTAGAGCTTGGGTTCTAACCTGTTGCCT (site CCTAGACCTAG)”: 0.241; “CCTAGAGCTTGGGTTCTAACCTGTTGCCT (site CCTAGAGCTAG)”: 0.694; “CCTAGAGCTTGGGTTCTAACCTGTTGCCT (site CCTAGATCTAG)”: 0.0587.
The result for “CCTAGATCTTGGGTTCTAACCTGTTGCCT (site CCTAGAACTAG)” reads 0.107; that for “CCTAGATCTTGGGTTCTAACCTGTTGCCT (site CCTAGACCTAG)”, 0.141.
Next, “CCTAGATCTTGGGTTCTAACCTGTTGCCT (site CCTAGAGCTAG)”: 0.0181; “CCTAGATCTTGGGTTCTAACCTGTTGCCT (site CCTAGATCTAG)”: 0.372.
Regarding “CCTATGTCTTGGGTTCTAACCTGTTGCTA (site ACTATGTCTTG)”, the “recombinant barcode read abundance (log10)” value stood at 0.0985.
With “CCTATGTCTTGGGTTCTAACCTGTTGCTA (site CCTATGTCTTA)”, the “recombinant barcode read abundance (log10)” value was found to be 0.528.
Next, “CCTCCCTCTTGGGTTCTAACCTGTTGCTA (site CCTCCCTCTCA)”: 0.481; “CCTCCCTCTTGGGTTCTAACCTGTTGCTA (site CCTCCCTCTTA)”: 1.84.
The result for “CCTGACACTTGGGTTCTAACCTGTTGCGG (site CCTGACACTCC)” reads 1.66; that for “CCTGACACTTGGGTTCTAACCTGTTGCGG (site CCTTACACTCC)”, 0.232; that for “CCTGGGACTTGGGTTCTAACCTGTTGCGC (site CCTGGGACTAC)”, 0.684.
The result for “CCTGGGACTTGGGTTCTAACCTGTTGCGC (site CCTGGGACTCC)” reads 0.347; that for “CCTGGGACTTGGGTTCTAACCTGTTGCGC (site CCTGGGACTGC)”, 1.24.
“CCTGGGACTTGGGTTCTAACCTGTTGCGC (site CCTGGGACTTC)”: the “recombinant barcode read abundance (log10)” value was 0.214.
Next, “CCTGGGACTTGGGTTCTAACCTGTTGCGG (site CCTGGGACTAC)”: 0; “CCTGGGACTTGGGTTCTAACCTGTTGCGG (site CCTGGGACTCC)”: 2.29.
For “CCTGGGACTTGGGTTCTAACCTGTTGCGG (site CCTGGGACTGC)”, the “recombinant barcode read abundance (log10)” value came out at 0.532.
Next, “CCTGGGACTTGGGTTCTAACCTGTTGCGG (site CCTGGGACTTC)”: 0.474; “CCTGGGACTTGGGTTCTAACCTGTTGCGT (site CCTGGGACTAC)”: 1.31.
Turning to “CCTGGGACTTGGGTTCTAACCTGTTGCGT (site CCTGGGACTCC)”, the “recombinant barcode read abundance (log10)” value was 0.807.
The result for “CCTGGGACTTGGGTTCTAACCTGTTGCGT (site CCTGGGACTGC)” reads 0.178.
Next, “CCTGGGACTTGGGTTCTAACCTGTTGCGT (site CCTGGGACTTC)”: 0.0691; “CCTGTAGCTTGGGTTCTAACCTGTTGCCT (site CCGGTAACTAG)”: 0.0829; “CCTGTAGCTTGGGTTCTAACCTGTTGCCT (site CCTGTAGCTAG)”: 1.13.
Take “CCTTAGCCTTGGGTTCTAACCTGTTGCCT (site CCTTACCCTAG)”: the “recombinant barcode read abundance (log10)” value is 0.0511.
The result for “CCTTAGCCTTGGGTTCTAACCTGTTGCCT (site CCTTAGCCTAG)” reads 0.385.
The result for “CCTTCTACTTGGGTTCTAACCTGTTGCTA (site CCTTCTACTAG)” reads 0.0484; that for “CCTTCTACTTGGGTTCTAACCTGTTGCTA (site CCTTCTACTTA)”, 0.392; that for “CCTTGCTCTTGGGTTCTAACCTGTTGCCT (site CCTTGCTCTAG)”, 0.317.
With “CCTTGCTCTTGGGTTCTAACCTGTTGCCT (site CCTTGGACTAG)”, the “recombinant barcode read abundance (log10)” value was found to be 0.114.
Next, “CCTTGGACTTGGGTTCTAACCTGTTGCAA (site CCTTGGACTTT)”: 0.546; “CCTTGGACTTGGGTTCTAACCTGTTGCAA (site GCTTGGACTCT)”: 0.0226.
The result for “CCTTGGTCTTGGGTTCTAACCTGTTGCCT (site CCTTGGTCTAG)” reads 0.216; that for “CCTTGGTCTTGGGTTCTAACCTGTTGCCT (site GCTTGGCCTAG)”, 0.107.
The result for “CCTTTCACTTGGGTTCTAACCTGTTGCCT (site CCTATCCCTAG)” reads 0.029; that for “CCTTTCACTTGGGTTCTAACCTGTTGCCT (site CCTTTCACTAG)”, 0.228.
Turning to “CGAATCGCTTGGGTTCTAACCTGTTGCCT (site CGAATCACTAG)”, the “recombinant barcode read abundance (log10)” value turned out to be 0.374.
Next, “CGAATCGCTTGGGTTCTAACCTGTTGCCT (site CGAATCCCTAG)”: 0.0216; “CGAATCGCTTGGGTTCTAACCTGTTGCCT (site CGAATCGCTAG)”: 0.994; “CGAATCGCTTGGGTTCTAACCTGTTGCCT (site CGAATCTCTAG)”: 0.084.
Turning to “CGAATCTCTTGGGTTCTAACCTGTTGCCT (site CGAATCACTAG)”, the “recombinant barcode read abundance (log10)” value was found to be 0.0112.
Next, “CGAATCTCTTGGGTTCTAACCTGTTGCCT (site CGAATCCCTAG)”: 0.221.
The result for “CGAATCTCTTGGGTTCTAACCTGTTGCCT (site CGAATCGCTAG)” reads 0; that for “CGAATCTCTTGGGTTCTAACCTGTTGCCT (site CGAATCTCTAG)”, 0.616; that for “CGAATGTCTTGGGTTCTAACCTGTTGCTG (site CGAATGTCTCA)”, 1.2.
Next, “CGAATGTCTTGGGTTCTAACCTGTTGCTG (site GGTATGTCTCA)”: 0.202; “CGACTCCCTTGGGTTCTAACCTGTTGCGT (site CGACTCCCTAC)”: 1.14.
On to “CGACTCCCTTGGGTTCTAACCTGTTGCGT (site GTCAAGTCTGA)”, for which the “recombinant barcode read abundance (log10)” value stood at 0.391.
The result for “CGACTGTCTTGGGTTCTAACCTGTTGCCT (site AAGTACACTCA)” reads 0.0207; that for “CGACTGTCTTGGGTTCTAACCTGTTGCCT (site CGACTGTCTAG)”, 1.92.
As to “CGAGAACCTTGGGTTCTAACCTGTTGCCT (site AGAGAACCTAG)”, the “recombinant barcode read abundance (log10)” value was 0.0999.
Next, “CGAGAACCTTGGGTTCTAACCTGTTGCCT (site CGAGAACCTAG)”: 1.67; “CGAGAACCTTGGGTTCTAACCTGTTGCCT (site GGAGAACCTAG)”: 0.0316.
The result for “CGAGAACCTTGGGTTCTAACCTGTTGCCT (site TGAGAACCTAG)” reads 0.12; that for “CGAGCAACTTGGGTTCTAACCTGTTGCTT (site CGAGCAACTAA)”, 0.0517.
